According to patent US20230346790A1, “PHARMACEUTICAL COMPOSITION FOR PREVENTION OR TREATMENT OF CANCERS ASSOCIATED WITH KRAS MUTATION” (WELLMARKER BIO CO., LTD., priority 2020, published 2023):
Entries after “also recorded” stand apart in the source; their conditions may differ.

Assays:
[1] = test system: cetuximab-resistant cell line R2 (LIM1215, KRAS G13D, RON Δ155); assay: Cell death rate by trypan blue staining and cell counting, cetuximab-resistant line; format: cell-based; conditions: cetuximab-resistant cell line R2, 1 µM, 48 hours
Description: (§1) The parent cell line LIM1215 and the cetuximab-resistant cell line R2 were counted, and each of them was seeded at 3×10^5 cells in a 60 mm dish. After 24 hours, treatment with 1 µM of each of the compounds of Example 1, Example 2, Example 3, Example 4, Example 5, positive control 1 (BMS-777607), positive control 2 (crizotinib), and positive control 3 (cabozantinib) was performed. After 48 hours had elapsed since the treatment, the cells were collected, resuspended in 1x phosphate buffered saline (PBS), and stained with a trypan blue solution. The stained cells were counted using a hemocytometer. Cell counting was performed in duplicate, and the mean and the standard deviation were calculated.

parent cell line LIM1215 = assay: Cell death rate by trypan blue staining and cell counting, cetuximab-sensitive parent line; format: cell-based; conditions: parent cell line LIM1215, 1 µM, 48 hours
Description: as §1

[2] = test system: cell line R2 exhibiting secondary resistance to cetuximab (LIM1215, KRAS G13D); assay: Tumor growth inhibition in mice transplanted with cetuximab-resistant cell line R2; format: in vivo, BALB/c nude mice; conditions: R2 xenograft mice
Description: 5-Week-old female BALB/c nude mice were purchased and acclimatized for 1 week. […] The compound of Example 1 was orally administered when the tumor reached a size of about 100 mm^3. The compound of Example 1 was administered once a day for 2 weeks, and tumor size and body weight were measured twice a week.
(§2) After completion of the 4-week experiment, the experimental animals were euthanized, and then the tumors were extracted and weighed. In addition, with respect to the tumor tissues, changes in expressions of pTyr-mRON, mRON, β-catenin, and cleaved caspase-3 were analyzed with immunohistochemical staining.

[3] = test system: pTyr-mRON, p-ERK, β-catenin, c-myc, cleaved caspase-3 in cell line R2; assay: Western blotting of protein expression after empty vector or β-catenin transfection; format: cell-based
Description: The parent cell line LIM1215 and the cetuximab-resistant cell line R2 were counted. 2×10^6 cells of each cell line were washed with 1x PBS once and then lysed with 1x RIPA lysis buffer. The cell lysate was reacted on ice for 20 minutes, and then centrifuged at 13,000 rpm for 20 minutes at 4° C. to obtain a supernatant. After proteins in the obtained supernatant were quantified using Bradford method, 20 µg of the protein was subjected to sodium-polyacrylamide gel electrophoresis (SDS-PAGE).
Transfer was performed using polyvinylidene fluoride (PVDF) membrane. Then, each of phospho-RON antibody (MyBiosource, Inc., cat# MBS462024; 1:500), RON antibody (Santa Cruz Biotechnology, cat# sc-374626; 1:1,000), phospho-EGFR antibody (Cell Signaling Technology, Inc., cat# 2234; 1:1,000), EGFR antibody (Cell Signaling Technology, Inc., cat# 2232; 1:1,000), phospho-Akt antibody (Cell Signaling Technology, Inc., cat# 4060; 1:1,000), Akt antibody (Cell Signaling Technology, Inc., cat# 9272; 1:1,000), phospho-ERK antibody (Cell Signaling Technology, Inc., cat# 4370; 1:1,000), ERK antibody (Cell Signaling Technology, Inc., cat# 4695; 1:1,000), phospho-β-catenin antibody (Cell Signaling Technology, Inc., cat# 9561; 1:1,000), β-catenin antibody (Cell Signaling Technology, Inc., cat# 8480; 1:1,000), c-myc antibody (Santa Cruz Biotechnology, cat# sc-40; 1:500), and β-actin antibody (Santa Cruz Biotechnology, cat# sc-47778; 1:1,000) was diluted in 5% skim milk tris buffered saline with Tween 20 (TBS-T) solution and reacted at 4° C. overnight.
After completion of the reaction, washing with the TBS-T solution was performed three times for 10 minutes each. Subsequently, anti-mouse-HRP or anti-rabbit-HRP (Cell Signaling Technology, Inc., cat# 7074 or 7076; 1:2,000) was diluted in the 5% skim milk TBS-T solution, and then reacted at room temperature for 2 hours. Then, washing with the TBS-T solution was performed three times for 10 minutes each, and then development was performed using an ECL solution (GE Healthcare, cat# RPN2108).
(§3) Subsequently, all cells were collected when 48 hours had elapsed. Cell death induction efficacy was compared and analyzed using a trypan blue exclusion assay. In addition, using these samples, changes in expression of respective proteins were compared and analyzed with the western blotting method.

[4] = test system: cell line R2 exhibiting secondary resistance to cetuximab, overexpressing β-catenin; assay: Cell death induction after β-catenin overexpression, trypan blue exclusion assay; format: cell-based; conditions: 48 hours
Description: as §3

[5] = test system: pTyr-mRON, mRON, β-catenin, cleaved caspase-3 in tumor tissues; assay: Immunohistochemical staining of extracted tumor tissues; format: in vivo, BALB/c nude mice; conditions: R2 xenograft
Description: as §2

[6] = cell line R2, β-catenin overexpressed
[7] = cell line R2 transfected with the empty vector

With `CCOc1ccn(-c2ccccc2)c(=O)c1C(=O)Nc1ccc(Oc2ccnc3cc(-c4ccc(CN5CCN(C)CC5)cn4)sc23)c(F)c1.Cl` [Example 3, 4-Ethoxy-N-{3-Fluoro-4-[(2-{5-[(4-Methylpiperazin-1-yl)Methyl]Pyridin-2-yl}Thieno[3,2-b]Pyridin-7-yl)Oxy]Phenyl}-2-Oxo-1-Phenyl-1,2-Dihydropyridine-3-Carboxamide Hydrochloride] the cell death rate ([1]; Hydrochloride) was “cell death was effectively induced”.

For `CCOc1ccn(-c2ccc(F)cc2)c(=O)c1C(=O)Nc1ccc(Oc2ccnc(N)c2Cl)c(F)c1` [positive control 1, reference compound], the cell death rate (parent cell line LIM1215) was “cell death was not induced” and the cell death rate [1] was “cell death was not induced”.

In the case of `CCOc1ccn(-c2ccccc2)c(=O)c1C(=O)Nc1ccc(Oc2ccnc3cc(-c4ccc(CNCCOC)cn4)sc23)c(F)c1.Cl` [Example 2, 4-Ethoxy-N-(3-Fluoro-4-{[2-(5-{[(2-Methoxyethyl)Amino]Methyl}Pyridine-2-yl)Thieno[3,2-b]Pyridine-7-yl]Oxy}Phenyl)-2-Oxo-1-Phenyl-1,2-Dihydropyridine-3-Carboxamide Hydrochloride], the cell death rate ([1]; Hydrochloride) is reported as “cell death was effectively induced”.

With `COc1cc2c(Oc3ccc(NC(=O)c4c5c(cn(-c6ccc(F)cc6)c4=O)CCO5)cc3F)ccnc2cc1OCCN1CCOCC1` [Example 4, N-(3-Fluoro-4-((6-Methoxy-7-(2-Morpholinoethoxy)Quinolin-4-yl)Oxy)Phenyl)-5-(4-Fluorophenyl)-6-Oxo-2,3,5,6-Tetrahydrofuro[3,2-c]Pyridine-7-Carboxamide] the cell death rate [1] was “cell death was effectively induced”.

In the case of `C[C@@H](Oc1cc(-c2cnn(C3CCNCC3)c2)cnc1N)c1c(Cl)ccc(F)c1Cl` [positive control 2, reference compound], the cell death rate (parent cell line LIM1215) is reported as “increased cell death rate” and the cell death rate [1] is reported as “cell death was not induced”.

In the case of `CCOc1ccn(-c2ccc(F)cc2)c(=O)c1C(=O)Nc1ccc(Oc2ccnc3cc(-c4ccc(CN5CCOCC5)cn4)sc23)c(F)c1.Cl` [Example 1, 4-Ethoxy-N-[3-Fluoro-4-({2-[5-(Morpholinomethyl)Pyridine-2-yl]Thieno[3,2-b]Pyridine-7-yl}Oxy)Phenyl]-1-(4-Fluorophenyl)-2-Oxo-1,2-Dihydropyridine-3-Carboxamide Hydrochloride], the “Tumor growth inhibition (TGI, %)” value ([2]; 15 mg/kg, oral once a day) is reported as 62.3±4.5%, the “tumor size inhibition effect as compared with cetuximab” value ([2]; small dose) is reported as “remarkably excellent tumor size inhibition effect” and the “expression of pTyr-mRON” value ([3]; cell line R2, regardless of β-catenin, western blotting) is reported as “decreased”. The expression of c-myc [3, 6] was “increased again”, the “expression of cleaved caspase-3” value [3, 6] was “decreased” and the “expression of p-ERK” value [3, 6] was “increased again”. For the same compound, the “expression of β-catenin” value [3, 6] was “increased again”, the expression of c-myc [3, 7] was “decreased” and the “expression of p-ERK” value [3, 7] was “decreased”. For the same compound, the “expression of β-catenin” value [3, 7] was “decreased”, the cell death rate ([1]; Hydrochloride) was “high cell death rate; also recorded: cell death was effectively induced” and the “cell death induction efficacy” value [4] was “reduced”. The “expression of cleaved caspase-3 in tumor tissue” value [5] was “increased”, the “expression of pTyr-mRON in tumor tissue” value [5] was “decreased” and the “expression of β-catenin in tumor tissue” value [5] was “decreased”.

`COc1cc2c(Oc3ccc(NC(=O)c4c5c(cn(-c6ccc(F)cc6)c4=O)CCO5)cc3F)ccnc2cc1OCCCN1CC(C#N)C1` [Example 5, N-(4-((7-(3-(3-Cyanoazetidine-1-yl)Propoxy)-6-Methoxyquinoline-4-yl)Oxy)-3-Fluorophenyl)-5-(4-Fluorophenyl)-6-Oxo-2,3,5,6-Tetrahydrofuro[3,2-c]Pyridine-7-Carboxamide] was tested, and the cell death rate [1] was “cell death was effectively induced”.
